Measured values as given in patent publication US8697911B2, “Rho kinase inhibitors” (Boehringer Ingelheim International GmbH, priority 2010, dated 2014).

The compounds below were run against ROCKII (1-543) (Homo sapiens (Human), UniProt O75116) (assay: Luciferin-Luciferase Assay (Assay 1)). Settings: luciferin-luciferase residual ATP; 750 nM ATP, 7.5 nM kinase.
Chain of ROCKII (1-543) (O75116 1-543): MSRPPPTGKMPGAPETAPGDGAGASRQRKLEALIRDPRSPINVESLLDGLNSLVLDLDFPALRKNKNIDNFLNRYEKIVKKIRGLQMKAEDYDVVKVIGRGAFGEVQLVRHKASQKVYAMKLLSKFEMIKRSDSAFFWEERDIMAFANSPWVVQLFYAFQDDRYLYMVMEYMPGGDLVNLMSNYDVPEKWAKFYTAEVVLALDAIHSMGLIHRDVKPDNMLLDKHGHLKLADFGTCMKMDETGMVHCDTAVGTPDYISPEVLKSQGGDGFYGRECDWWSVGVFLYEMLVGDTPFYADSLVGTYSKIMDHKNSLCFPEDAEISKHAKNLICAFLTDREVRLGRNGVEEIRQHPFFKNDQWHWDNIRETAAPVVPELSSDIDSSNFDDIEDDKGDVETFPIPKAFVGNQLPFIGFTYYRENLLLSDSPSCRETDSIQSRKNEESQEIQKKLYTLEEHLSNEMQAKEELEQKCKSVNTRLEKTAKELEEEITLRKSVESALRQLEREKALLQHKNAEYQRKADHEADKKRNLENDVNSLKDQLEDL
Format: biochemical
Description: 1. Luciferin-Luciferase Assay
The activity of ROCKII (1-543) kinase is measured utilizing Cambrex PKLight ATP Detection Reagent, a homogeneous assay technology using luciferin-luciferase to quantify residual ATP. The assay is performed in 384-well low-volume, white, non-binding surface microtiter plates (Corning). The assay buffer is 25 mM HEPES, pH 7.5, 10 mM MgCl2, 50 mM KCl, 0.2% BSA, 0.01% CHAPS, 100 μM Na3VO4 and 0.5 mM DTT. Test compounds, dissolved in neat DMSO at 500 μg/mL, are serially diluted for dose response for a final starting concentration of 3 μg/mL in 1% DMSO of assay buffer. ROCKII (1-543) (62,408 Da) is diluted in assay buffer to a final concentration of 7.5 nM in a total volume of 15 μL. Positive controls are reaction mixtures containing no test compound; negative controls (blanks) are reaction mixtures containing no kinase. After 15 minutes of pre-incubation of the test compounds with the kinase, a mixture of ATP and peptide substrate ([…]) in assay buffer is added to each well for a final concentration of 750 nM ATP and 500 nM peptide, respectively. After 90 minutes of incubation of the kinase reaction at 28° C. temperature, 10 μL of PKLight ATP Detection Reagent (warmed to room temperature previously) is added to each well. The assay plate is incubated at room temperature for additional 15 minutes and then read on an Analyst in luminescence mode. Dose-response experiments for each of the test compounds are conducted in quadruplet. IC50 values of test compounds represent 50% response of the positive control from the dose-response curve.
Work on Cc1nc2cnccc2n1-c1ccc(C(=O)NCc2cccc(C(=O)Nc3ccc4c(c3)CN(C)CC4)c2)cc1 [compound 198] yielded an IC50 of 38 nM. For CN1CCc2ccc(NC(=O)c3cccc(CNC(=O)c4cccc(-c5ccncc5)c4)c3)cc2C1 [compound 69], the IC50 was 44.5 nM. Work on CN1CCc2ccc(NC(=O)c3cccc(CNC(=O)c4csc(-c5ccncc5)n4)c3)cc2C1 [compound 33] yielded an IC50 of 33 nM. CN1CCc2ccc(NC(=O)c3cccc(CNC(=O)c4cc(-c5cccnc5)[nH]n4)c3)cc2C1 [compound 188] showed an IC50 of 91.5 nM. Cc1ncc(-c2ccc(C(=O)NCc3cccc(C(=O)Nc4ccc5c(c4)CN(C)CC5)c3)s2)o1 [compound 68] gave an IC50 of 64.2 nM. Work on Cc1ncc(-c2ccc(C(=O)NCc3cccc(C(=O)Nc4nc5c(s4)CN(C)CC5)c3)s2)o1 [compound 116] yielded an IC50 of 14.5 nM. With CCn1c(C(=O)NCc2cccc(C(=O)Nc3ccc4c(c3)CN(C)CC4)c2)cc2ccc(C#N)cc21 [compound 118] the IC50 was 24 nM. CN1CCc2ccc(NC(=O)c3cccc(CNC(=O)c4ccc(-c5ccc(N)nc5)s4)c3)cc2C1 [compound 177] gave an IC50 of 68 nM. CN1CCc2nc(NC(=O)c3cccc(CNC(=O)c4cn5cc(C#N)ccc5n4)c3)sc2C1 [compound 88] showed an IC50 of 45.7 nM. Compound CN1CCc2ccc(NC(=O)c3cccc(CNC(=O)c4ccc(-c5cccnc5)s4)c3)cc2C1 [compound 62, 5-pyridin-3-yl-thiophene-2-carboxylic acid 3-(2-methyl-1,2,3,4-tetrahydro-isoquinolin-7-ylcarbamoyl)-benzylamide] has an IC50 of 18.5 nM. For CN1CCc2ccc(NC(=O)c3cccc(CNC(=O)c4cccc(-c5cccnc5)c4)c3)cc2C1 [compound 53], the IC50 was 28 nM. Compound CN1CCc2ccc(NC(=O)c3cccc(CNC(=O)c4ccc5c(c4)OCC(=O)N5)c3)cc2C1 [compound 182] has an IC50 of 81 nM. CN1CCc2ccc(NC(=O)c3cccc(CNC(=O)c4cn5ccc(C#N)cc5n4)c3)cc2C1 [compound 18] showed an IC50 of 19.3 nM. Compound CN1CCc2ccc(NC(=O)c3cccc(CNC(=O)c4ccc5c(c4)CCC(=O)N5)c3)cc2C1 [compound 184] has an IC50 of 18 nM. CN1CCc2ccc(NC(=O)c3cccc(CNC(=O)c4cccc(-n5ccnc5)c4)c3)cc2C1 [compound 186] showed an IC50 of 14.5 nM. Work on CN1CCc2ccc(NC(=O)c3cccc(CNC(=O)c4ccc5[nH]c(=O)ccc5c4)c3)cc2C1 [compound 175] yielded an IC50 of 22.5 nM.
